Laboratory results as given in ChEMBL document CHEMBL1159352, “Reaction of irofulven with zinc and acid” (J Nat Prod, 2003).

What follows are compounds tested on HL-60 (assay: Cytotoxicity against human HL60 cells after 48 hrs by trypan blue exclusion assay). Conditions: HL-60, 48 h.
Type: functional, cell-based

`CC1=C(CO)c2c(C)c(CCO)c(C)c(O)c2C1` and `CC1=C(CO)c2c(C)c(CCO)c(C)c(O)c2C1O` (stereo not given) are within 1.5-fold of each other in IC50: 120 µM for the first, 114 µM for the second.

`C=C1C(C)=Cc2c(O)c(C)c(CCO)c(C)c21` and `C=C1C(C)=Cc2c(O)c(C)c(CCOC(C)=O)c(C)c21` are within 1.5-fold of each other in IC50: 130 µM for the first, 110 µM for the second.

Work on `CC1=C2C(=C[C@@](C)(CO)[C@@H]2O)C(=O)[C@](C)(O)C12CC2` [ILLUDIN] yielded an IC50 of 0.003 µM.
